Literature values in patent publication EP4659595A1, “NICOTINE-POLYMER COMPLEX COMPRISING MULTIPLE NICOTINE FORMS” (Nicoventures Trading Limited, priority 2024, dated 2025).

Legend:
[1] = fats, alcohols, water
[2] = when isolated; converts via isomerization into trans-bixin (β-bixin)
[3] = partition coefficient between octanol and water; source of values not stated

| Compound | solubility [1] | chemical stability [2] | logP [3] |
| --- | --- | --- | --- |
| CC(/C=C/C=C(C)/C=C/C(=O)O)=C\C=C\C=C(C)\C=C\C=C(C)\C=C\C(=O)O (stereo in doubt) [norbixin, (2E,4E,6E,8E,10E,12E,14E,16E,18E)-4,8,13,17-tetramethylicosa-2,4,6,8,10,12,14,16,18-nonaenedioic acid] | water soluble |  |  |
| COC(=O)/C=C/C(C)=C\C=C\C(C)=C\C=C\C=C(C)\C=C\C=C(C)\C=C\C(=O)O [bixin, (2E,4E,6E,8E,10E,12E,14E,16Z,18E)-20-methoxy-4,8,13,17-tetramethyl-20-oxoicosa-2,4,6,8,10,12,14,16,18-nonaenoic acid] | soluble in fats and alcohols but insoluble in water | chemically unstable when isolated |  |
| CC(C)[C@@H]1CC[C@@H](C)C[C@H]1OC(=O)CCC(=O)O [monomenthyl succinate] |  |  | 3 |
| ethyl benzoic acid |  |  | 2.9 |
| isopropyl benzoic acid |  |  | 3.5 |
| tocopherol succinate |  |  | 10.2 |
